Test results published in patent US20240293405A1, “(1H-PYRROLO[2,3-B]PYRIDIN-1-YL)PYRIMIDIN-2-YL-AMINO-PHENYL-ACRYLAMIDE INHIBITORS OF EGFR FOR USE IN THE TREATMENT OF BRAIN TUMORS” (Dana-Farber Cancer Institute, Inc., priority 2021, published 2024).
“And” between values parts separate entries of the source, which are not always exact repeats. Equal values may be shown once. Read-outs that look alike come from different tables or passages of the source.

Experiments:
[1] = tested on: P-gp, Bcrp; conditions: previously published report; cited from earlier work
[2] = Oral dog 4-week toxicity study with toxicokinetics; type: in vivo, beagle dogs; conditions: beagle, in vivo, dog Day 28 mean, Compound 2 as metabolite; for AUC(0-t): read-out: AUC0-24
Description: Compound 1 (0, 10, 30, and 100 mg/kg/day) was given orally, once daily by gavage, to male and female beagle dogs (4/sex) for up to 28 days. […] The cause of death in this high-dose male was attributed to myocardial degeneration. This lesion was not observed in any other dog on study. Increases in alkaline phosphatase, globulin, cholesterol, triglycerides and fibrinogen and decreased reticulocyte counts noted in the high-dose group at mid-study returned towards baseline by the end of the study following 11/12 days of recovery. Testicular changes at all doses (seminiferous epithelial vacuolation at 10 and 30 mg/kg and degeneration/atrophy at 100 mg/kg) were not reversible in this short-term study; the reversibility period was not long enough to assess reversibility of testicular changes.
The increases were generally dose-proportional or greater-than dose-proportional on Day 1 and Day 28. Gender difference was not observed. No significant accumulation of Compound 1 or Compound 2 was observed.
Thirty-two beagle dogs (conventional, naive) were divided into four groups. Each group consists of four male and four female. Group 1 beagle dogs were administered vehicle and groups 2-4 beagle dogs were administered Compound 1 at 10 mg/kg, 30 mg/kg, and 100 mg/kg, respectively, by oral gavage once daily for 28 consecutive days (Table 15). […] Cmax (ng/mL) and AUClast (hr*ng/mL) of Compound 1 on day 1 were obtained for groups 2-4 (Table 15).

[3] = Pharmacokinetics in rats (IV, PO); type: in vivo, rat; conditions: rat, plasma, Compound 2 as metabolite
Text: Exposure was generally dose proportional.

[4] = tested on: 468 human kinases and disease relevant mutant variants; experiment: Kinase selectivity binding panel (468 kinases); conditions: 468 kinase panel, 1 μM free base
Description: Compound 1 and Compound 2 (major metabolite) were evaluated in a panel of 468 human kinases and disease relevant mutant variants. Compound 1 and Compound 2 bound to few non-mutant kinases at <1% of control. […] While there is some variability between Compound 1 and Compound 2, it is clear that both compounds are very effective at binding to a large panel of mutant kinases. […] Binding constant to wild type EGFR was 4.9 nM.

[5] = Brain and plasma exposure after 5 hour intravenous infusion; type: in vivo, Sprague Dawley rats; conditions: for Kp at 5 h: iv, read-out: Brain/Plasma (ratios)
Description: A single IV infustion for 5 hours was administered to each animal, which were then twice observed clinically (30 minutes to 1 hour post-posing and at the end of the study (TTerminal). Blood samples were collected at 5 time points from each animal over the 5 hour infusion period (5 minutes, 1 hour, 2, hours, 3 hours and TTerminal) and processed to plasma. Brains were collected at Tterminal (blotted, weighed, and snap frozen) and brain exposure was compared. […]

[6] = Cardiovascular function (telemetry); type: in vivo, dog; conditions: plasma; dog, 100 mg/kg Compound 1 PO; M38 as metabolite; read-out: estimated single-dose Cmax
Description: This arrythmia was not associated with maximum plasma concentration (Cmax) or Tmax of either parent or metabolite. No definitive link to the test article could be identified. Given the unexplained reversible arrythmia in this high-dose (100 mg/kg) telemetry dog, routine electrocardiogram (ECG) monitoring in Phase 1 is recommended.

[7] = tested on: BT112 cells; experiment: Cell viability, patient-derived GBM line BT112; conditions: Homo sapiens, 72 h
Description: (§1) Primary human glioblastoma lines BT112, BT179 and BT333 were maintained in NeuroCult proliferation medium (human) (StemCell Technologies) with 20 ng/ml EGF, 10 ng/ml FGF and 0.0002% Heparin.
(§2) Cells were seeded in 96-well plates at a density of 1,000 cells per well and treated with two-fold serial dilutions of compounds with a starting concentration of 20 μM. Cell viability was assessed after three days of treatment by CellTiter-Glo (Promega). Curve fitting analysis and IC50 value determination were performed using GraphPad Prism 8.

[8] = tested on: Glioblastoma; conditions: previously published report, cited from earlier work
[9] = tested on: BT333 cells; experiment: Cell viability, patient-derived GBM line BT333; conditions: Homo sapiens, 72 h
Description: as §1, §2

[10] = tested on: BT179 cells; experiment: Cell viability, patient-derived GBM line BT179; conditions: Homo sapiens, 72 h
Description: as §1, §2

[11] = Brain and plasma exposure after single oral dose; type: in vivo, Sprague Dawley rats; conditions: gefitinib 50 mg/kg PO
Text: Genfitinib concentrations were quantitated by LC-MS/MS from brain and plasma from Group 1 animals.

[12] = Brain and plasma exposure after single oral dose; type: in vivo, Sprague Dawley rats; conditions: Sprague Dawley, rat, 50 mg/kg, gefitinib 50 mg/kg PO, 7 hr; for concentration at 7 h: oral
[13] = female, 10 mg/kg Compound 1 PO, F
[14] = female, 30 mg/kg Compound 1 PO, F
[15] = male, 10 mg/kg Compound 1 PO, M
[16] = male, 30 mg/kg Compound 1 PO, M
[17] = 3 mg/kg IV infusion over 5 h, 5 h, individual animal, Compound 2 as metabolite in Compound 1-dosed rats
[18] = male, Sprague Dawley, rat, brain, intravenous, 3 mg/kg, 3 mg/kg IV infusion over 5 h, 5 h, individual animal, Compound 2 as metabolite in Compound 1-dosed rats, read-out: Brain Tissue Concentration
[19] = male, Sprague Dawley, rat, brain, intravenous, 3 mg/kg, 3 mg/kg IV infusion over 5 h, 5 h, mean n=6, Compound 2 as metabolite, read-out: Brain Tissue Concentration
[20] = male, Sprague Dawley, rat, plasma, intravenous, 3 mg/kg, 3 mg/kg IV infusion over 5 h, 1 h, individual animal, Compound 2 as metabolite in Compound 1-dosed rats
[21] = male, Sprague Dawley, rat, plasma, intravenous, 3 mg/kg, 3 mg/kg IV infusion over 5 h, 2 h, individual animal, Compound 2 as metabolite in Compound 1-dosed rats
[22] = male, Sprague Dawley, rat, plasma, intravenous, 3 mg/kg, 3 mg/kg IV infusion over 5 h, 5 h, individual animal, Compound 2 as metabolite in Compound 1-dosed rats, read-out: Plasma Concentration

For `CN(C)C/C=C/C(=O)Nc1cc2c(Nc3ccc(F)c(Cl)c3)ncnc2cc1O[C@H]1CCOC1` [Afatinib], the “Efflux Liability” value [1] is listed as “P-gp, Bcrp”.
Work on `C=CC(=O)Nc1cc(Nc2nccc(-n3ccc4cccnc43)n2)c(OC)cc1N(C)CCNC` [Compound 2, N-(5-((4-(1H-pyrrolo[2,3-b]pyridin-1-yl)pyrimidin-2-yl)amino)-4-methoxy-2-(methyl(2-(methylamino)ethyl)amino)phenyl)acrylamide] yielded a Cmax [2, 13] of 242 ng/mL, an AUC(0-t) [2, 13] of 3360 ng·h/mL and a Cmax [2, 14] of 161 ng/mL. For the same molecule, the AUC(0-t) [2, 14] was 1790 ng·h/mL, the Cmax [2, 15] was 143 ng/mL and the AUC(0-t) [2, 15] was 1420 ng·h/mL. The Cmax [2, 16] was 263 ng/mL, the AUC(0-t) [2, 16] was 2980 ng·h/mL and the half-life [3] was ~9 h. For the same molecule, the Tmax ([3]; po) was ~7 h, the “targeted non-mutant kinases (bound at <1% of control)” value [4] was “ERBB2, JAK3 (JH1-domain-catalytic), MKNK2, MTOR, OSR1 and TNK1” and the “Plasma Concentration” value ([5]; 3 mg/kg IV infusion over 5 h, 0.083 h, individual animal, Compound 2 as metabolite in Compound 1-dosed rats) was “BLQ”. For the same molecule, the “Plasma Concentration” value ([5]; 3 mg/kg IV infusion over 5 h, 0.083 h, mean n=6, Compound 2 as metabolite) was “BLQ”, the “Plasma Concentration” value ([5]; 3 mg/kg IV infusion over 5 h, 1 h, individual animal, Compound 2 as metabolite in Compound 1-dosed rats) was 3.47 ng/mL (2×) and 3.14 ng/mL and 3.28 ng/mL and 2.71 ng/mL and the “Plasma Concentration” value ([5]; 3 mg/kg IV infusion over 5 h, 2 h, individual animal, Compound 2 as metabolite in Compound 1-dosed rats) was 7.75 ng/mL and 6.99 ng/mL and 8.41 ng/mL and 7.39 ng/mL and 6.20 ng/mL. For the same molecule, the “Plasma Concentration” value ([5]; 3 mg/kg IV infusion over 5 h, 3 h, individual animal, Compound 2 as metabolite in Compound 1-dosed rats) was 12.9 ng/mL and 10.6 ng/mL and 12.7 ng/mL and 12.5 ng/mL and 12.3 ng/mL, the “Brain Tissue Concentration” value [5, 17] was 23.6 ng/g and 20.9 ng/g and 21.0 ng/g and 21.6 ng/g and 19.8 ng/g and the “Brain/Plasma (ratios)” value [5, 17] was 1.30 and 1.07 and 1.11 and 1.06. For the same molecule, the “Plasma Concentration” value [5, 17] was 18.1 ng/mL and 19.6 ng/mL and 18.9 ng/mL and 20.4 ng/mL and 16.8 ng/mL, the “brain exposure relative to plasma” value ([5]; Compound 2 as metabolite, rat) was “essentially equal to plasma” and the concentration at 5 h [5, 18] was 24.5 ng/g. For the same molecule, the concentration at 5 h [5, 19] was 21.9 ng/g, the Kp at 5 h ([5]; male, Sprague Dawley, rat, brain, 3 mg/kg, 3 mg/kg IV infusion over 5 h, 5 h, individual animal, Compound 2 as metabolite in Compound 1-dosed rats) was 1.35 and the Kp at 5 h ([5]; male, Sprague Dawley, rat, brain, 3 mg/kg, 3 mg/kg IV infusion over 5 h, 5 h, mean n=6, Compound 2 as metabolite) was 1.18. For the same molecule, the concentration at 1 h [5, 20] was 3.24 ng/mL, the concentration at 1 h ([5]; male, Sprague Dawley, rat, plasma, intravenous, 3 mg/kg, 3 mg/kg IV infusion over 5 h, 1 h, mean n=6, Compound 2 as metabolite) was 3.22 ng/mL and the concentration at 2 h [5, 21] was 5.62 ng/mL. It also gave a concentration at 2 h ([5]; male, Sprague Dawley, rat, plasma, intravenous, 3 mg/kg, 3 mg/kg IV infusion over 5 h, 2 h, mean n=6, Compound 2 as metabolite) of 7.06 ng/mL, a concentration at 3 h ([5]; male, Sprague Dawley, rat, plasma, intravenous, 3 mg/kg, 3 mg/kg IV infusion over 5 h, 3 h, individual animal, Compound 2 as metabolite in Compound 1-dosed rats) of 12.9 ng/mL and a concentration at 3 h ([5]; male, Sprague Dawley, rat, plasma, intravenous, 3 mg/kg, 3 mg/kg IV infusion over 5 h, 3 h, mean n=6, Compound 2 as metabolite) of 12.3 ng/mL. The concentration at 5 h [5, 22] was 18.2 ng/mL, the concentration at 5 h ([5]; male, Sprague Dawley, rat, plasma, intravenous, 3 mg/kg, 3 mg/kg IV infusion over 5 h, 5 h, mean n=6, Compound 2 as metabolite, read-out: Plasma Concentration) was 18.7 ng/mL and the Cmax [6] was ~367 ng/mL and ~750 nM.
For `C#Cc1cccc(Nc2ncnc3cc(OCCOC)c(OCCOC)cc23)c1` [Erlotinib], the IC50 [7] is listed as 18.5 µM, the “Glioblastoma (treatment outcome)” value [8] is listed as “Failed” and the “Glioblastoma (treatment outcome)” value ([8]; listed as erlotinib) is listed as “failed”. The IC50 [9] was 52.3 µM, the “Efflux Liability” value [1] was “P-gp, Bcrp” and the IC50 [10] was 11.7 µM.
In the case of `COc1cc2ncnc(Nc3ccc(F)c(Cl)c3)c2cc1OCCCN1CCOCC1` [Gefitinib, reference compound], the “Glioblastoma (treatment outcome)” value [8] is given as “Failed”, the “Glioblastoma (treatment outcome)” value ([8]; listed as gefitinib) is given as “failed” and the concentration at 3 h ([11]; Sprague Dawley, rat, plasma, oral, 50 mg/kg, 3 hr, mean n=3) is given as 1950 ng/mL. The “Plasma Concentration” value ([11]; 3 hr, individual animal) was 2660 ng/mL and 1940 ng/mL and 1260 ng/mL, the “Brain Tissue Concentration” value ([11]; 7 hr, individual animal) was 666 ng/g and 562 ng/g and 561 ng/g and the “Plasma Concentration” value ([11]; 7 hr, individual animal) was 2240 ng/mL and 4700 ng/mL and 1030 ng/mL. For the same molecule, the “Brain Tissue Concentration” value [5, 17] was 153 ng/g and 129 ng/g and 151 ng/g and 149 ng/g and 189 ng/g and 155 ng/g, the concentration at 5 h [5, 18] was 155 ng/g and the concentration at 5 h [5, 19] was 154 ng/g. For the same molecule, the concentration at 0.083 h ([5]; male, Sprague Dawley, rat, plasma, intravenous, 3 mg/kg, 3 mg/kg IV infusion over 5 h, 0.083 h, individual animal, Compound 2 as metabolite in Compound 1-dosed rats) was 55.6 ng/mL, the concentration at 1 h [5, 20] was 115 ng/mL and the concentration at 2 h [5, 21] was 161 ng/mL. For the same molecule, the concentration at 5 h [5, 22] was 286 ng/mL, the “Efflux Liability” value [1] was “P-gp, Bcrp” and the concentration at 7 h ([12]; brain, individual animal, read-out: Brain Tissue Concentration) was 561 ng/g. It also gave a concentration at 7 h ([12]; brain, mean n=3, read-out: Brain Tissue Concentration) of 596 ng/g, a Kp at 7 h ([12]; brain, po, mean n=3, read-out: Brain/Plasma (ratios)) of 0.22 and a concentration at 7 h ([12]; plasma, mean n=3, read-out: Plasma Concentration) of 2660 ng/mL.
Molecule `CS(=O)(=O)CCNCc1ccc(-c2ccc3ncnc(Nc4ccc(OCc5cccc(F)c5)c(Cl)c4)c3c2)o1` [Lapatinib] has an IC50 [7] of 5.22 µM, an IC50 [9] of 7.91 µM and an IC50 [10] of 2.32 µM.
In the case of `COc1cc2ncnc(Nc3ccc(F)c(Cl)c3)c2cc1NC(=O)/C=C/CN1CCCCC1` [Vizimpro], the “Glioblastoma (treatment outcome)” value [8] is listed as “Failed” and the “Glioblastoma (treatment outcome)” value ([8]; listed as visimpro) is listed as “failed”.
